Results taken from patent publication EP0073960A1, “2-Arylhydrazino-2-imidazolines, their acyl derivatives, process for their preparation and their use in the control of endoparasites and ectoparasites” (BAYER AG, priority 1981, dated 1983).

Test system: Boophilus microplus, Biarra-Stamm
Test: In vitro tick test: inhibition of egg laying after dipping adult engorged female ticks
Settings: Rhipicephalus microplus, 480 h, resistant strain, ticks dipped for 1 minute, read after 20 days, read-out: 50 % Hemmung bei einer Wirkstoff-konzentration in ppm a.i.von
Text: Lösungsmittel: 35 Gewichtsteile Ethylenglykolmonomethylether 35 Gewichtsteile Nonylphenolpolyglykolether
Zwecks Herstellung einer geeigneten Formulierung vermischt man drei Gewichtsteile Wirkstoff mit sieben Teilen des oben angegebenen Lösungsmittel-Emulgator-Gemisches und verdünnt das so erhaltene Emulsionskonzentrat mit Wasser auf die jeweils gewünschte Konzentration.
In diese Wirkstoffzubereitungen werden adulte, vollgesogene Zeckenweibchen der Art Boophilus microplus (resistent) eine Minute lang getaucht. Nach dem Tauchen von je 10 weiblichen Exemplaren überführt man diese in Petrischalen, deren Boden mit einer entsprechend großen Filterscheibe belegt ist.
Nach 20 Tagen wird die Wirksamkeit der Wirkstoffzubereitung bestimmt durch Ermittlung der Hemmung der Eiablage gegenüber unbehandelten Kontrollzecken. Die Wirkung drückt man in Prozent aus, wobei 100 % bedeutet, daß keine Eier mehr abgelegt wurden und 0 % besagt, daß die Zecken Eier in normaler Menge ablegten.
Untersuchter Wirkstoff, geprüfte Konzentration, getestete Parasiten und erhaltene Befunde gehen aus der folgenden Tabelle 1 hervor.

Cc1cc(Cl)ccc1NC(=S)N(C)C [Chloromethiuron]
IC50: > 5000 µg/mL
